Literature values in patent publication US20110165150A1, “Isolated organ perfusion combination therapy of cancer” (Merck Patent GmbH, priority 2006, published 2011).

Test system: integrin receptors αvβ3, αvβ1, αvβ6, αvβ8, αIIbβ3
Settings: especially αvβ3 and/or αvβ5

CC(C)[C@H]1C(=O)N[C@@H](CCCN=C(N)N)C(=O)NCC(=O)N[C@@H](CC(=O)O)C(=O)N[C@H](Cc2ccccc2)C(=O)N1C [Cilengitide, cyclo-(Arg-Gly-Asp-DPhe-NMeVal)]
blocking the integrin receptors: efficacious in blocking
